The values that follow come from patent US20120190751A1, “COMPOUNDS FOR TREATMENTS OF INFLAMMATION” (ANA-MAR AB, priority 2009, published 2012).

For experiment [1], the target named is 5HT2B receptor (Homo sapiens, UniProt P41595). Put plainly: Radio-ligand binding assay 5-HT2B. As for the experimental part:
(§1) Determination of binding affinities for various 5-HT receptors was performed by radio-ligand binding assays. Briefly, tissue or cells expressing the receptor of interest were suspended in incubation buffer and radio-ligands and 10 μM N-(2-chloro-3,4-dimethoxybenzylidene-amino)guanidine were added. After incubation, separation of bound and free radio-ligand was done by multiple washings with buffer.
(§2) The results were presented as the percent inhibition of specific binding. The IC50 values were determined by a non-linear least square regression analysis using MathIQ™ (ID Business Solution Ltd., UK). The inhibition constants (Ki) were calculated using the equation of Cheng and Prusoff (Cheng Y, Prusoff W H, Biochem. Pharmacol. 22:3099-3108, 1973) using the observed IC50 of the tested compound, the concentration of radioligand employed in the assay and the historical values for the KD of the ligand.

Experiment [2] addresses T1, 5-HT2C receptor (Homo sapiens, UniProt P28335).
T1 sequence (P28335 33-458): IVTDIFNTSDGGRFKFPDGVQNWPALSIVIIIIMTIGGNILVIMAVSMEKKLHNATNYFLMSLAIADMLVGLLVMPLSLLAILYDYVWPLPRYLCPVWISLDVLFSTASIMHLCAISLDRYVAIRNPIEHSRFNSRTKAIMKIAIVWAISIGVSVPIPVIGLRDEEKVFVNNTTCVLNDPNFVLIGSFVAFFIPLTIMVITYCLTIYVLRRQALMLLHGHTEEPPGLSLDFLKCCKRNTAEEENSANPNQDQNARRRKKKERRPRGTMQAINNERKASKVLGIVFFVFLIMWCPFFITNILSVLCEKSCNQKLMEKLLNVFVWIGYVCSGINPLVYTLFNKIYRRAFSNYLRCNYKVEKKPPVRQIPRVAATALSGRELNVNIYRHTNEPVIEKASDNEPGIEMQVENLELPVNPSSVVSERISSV
The experiment in a line: Radio-ligand binding assay 5-HT2C. As to the method: as §1, §2

[3] abbreviates: 10 different concentrations, Cheng-Prusoff, FIG. 1.

Sequence of 5HT2B receptor (P41595 whole entry): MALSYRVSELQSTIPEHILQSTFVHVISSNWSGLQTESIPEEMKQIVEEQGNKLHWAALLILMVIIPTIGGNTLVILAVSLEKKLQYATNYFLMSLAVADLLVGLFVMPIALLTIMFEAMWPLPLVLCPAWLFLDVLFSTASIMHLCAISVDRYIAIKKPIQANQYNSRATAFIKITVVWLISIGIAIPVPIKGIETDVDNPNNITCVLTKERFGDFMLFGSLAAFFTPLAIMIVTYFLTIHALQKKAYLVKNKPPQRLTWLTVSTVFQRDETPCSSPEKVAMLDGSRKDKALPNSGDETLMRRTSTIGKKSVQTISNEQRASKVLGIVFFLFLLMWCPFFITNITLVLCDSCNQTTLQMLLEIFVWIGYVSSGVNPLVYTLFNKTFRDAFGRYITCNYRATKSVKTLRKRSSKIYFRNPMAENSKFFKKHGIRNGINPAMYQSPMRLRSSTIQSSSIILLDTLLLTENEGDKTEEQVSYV

Broadly, the inhibition is the drop in the measured response relative to a control, in per cent. Broadly, the Ki is a measure of affinity in units of concentration, obtained from inhibition or displacement. Take `COc1ccc(C=NNC(=N)N)c(Cl)c1OC` [N-(2-chloro-3,4-dimethoxybenzylideneamino)guanidine]: the inhibition at 10 µM in experiment [1] (10 μM compound, [3H] LSD 1.2 nM, human rec. CHO.K1 cells) was found to be 107%; in experiment [2], 80%. Moreover, the figures for the inhibition constant (Ki) in experiment [1] (setting [3]) and in experiment [2] (setting [3]) were 263 nM and 880 nM, respectively.
